Results reported in paper PMC6934184, “Selective DNA-PKcs inhibition extends the therapeutic index of localized radiotherapy and chemotherapy” (The Journal of Clinical Investigation, 2019).

Target: T1, FLT3 (Homo sapiens, UniProt P36888)
T1 construct: purchased Thermo Fisher Scientific (Life Technologies) SelectScreen
Assay: SelectScreen Z'LYTE
Assay type: biochemical
In short: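 SelectScreen broad panel; activity (Z'LYTE, Adapta) plus binding formats. ATP: Km app for CSF1R Z'LYTE; 10 for CAMK1 Adapta. Readout = % per kinase.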

T1 sequence (P36888 27-993): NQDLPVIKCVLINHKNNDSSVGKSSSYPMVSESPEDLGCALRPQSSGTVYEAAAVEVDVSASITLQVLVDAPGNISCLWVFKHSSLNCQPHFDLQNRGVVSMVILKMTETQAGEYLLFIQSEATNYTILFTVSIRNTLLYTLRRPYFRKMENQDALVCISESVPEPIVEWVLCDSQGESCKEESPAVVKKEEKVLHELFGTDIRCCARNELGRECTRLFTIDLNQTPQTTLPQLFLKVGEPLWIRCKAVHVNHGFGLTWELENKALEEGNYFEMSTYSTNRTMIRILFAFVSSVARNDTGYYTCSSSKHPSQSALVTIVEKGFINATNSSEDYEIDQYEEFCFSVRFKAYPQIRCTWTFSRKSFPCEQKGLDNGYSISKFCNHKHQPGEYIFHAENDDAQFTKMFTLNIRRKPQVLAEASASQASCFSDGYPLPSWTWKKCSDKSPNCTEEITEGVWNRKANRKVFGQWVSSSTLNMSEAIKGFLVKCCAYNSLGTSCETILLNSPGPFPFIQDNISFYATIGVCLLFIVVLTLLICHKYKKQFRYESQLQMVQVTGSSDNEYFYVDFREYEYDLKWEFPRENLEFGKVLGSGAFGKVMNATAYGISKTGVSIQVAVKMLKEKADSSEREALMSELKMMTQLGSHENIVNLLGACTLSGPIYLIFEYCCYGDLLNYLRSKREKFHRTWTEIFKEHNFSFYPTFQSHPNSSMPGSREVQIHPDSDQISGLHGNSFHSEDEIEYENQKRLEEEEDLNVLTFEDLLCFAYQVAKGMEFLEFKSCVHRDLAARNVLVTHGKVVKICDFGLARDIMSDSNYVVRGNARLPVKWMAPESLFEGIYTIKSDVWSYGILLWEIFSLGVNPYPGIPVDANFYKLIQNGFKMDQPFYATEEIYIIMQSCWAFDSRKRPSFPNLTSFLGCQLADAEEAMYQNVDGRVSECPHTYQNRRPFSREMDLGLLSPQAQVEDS

CN(C(=O)CN1CCOCC1)c1ccc2sc3c(-c4cccc5c(=O)cc(N6CC7CCC(C6)O7)oc45)cccc3c2c1 [NU5455]
inhibition at 1 µM: 9.1%
